Experimental data taken from patent publication US20060287313A1, “Isoquinoline compounds and methods of use thereof” (Inotek Pharmaceuticals Corporation, priority 2005, published 2006).

What was measured:
[1] = molecular target: T1, purified PARS enzyme (Homo sapiens, UniProt P09874); assay: Purified PARS enzyme assay (Trevigen PARS inhibition assay kit); format: biochemical; settings: Table 1, inhibitory effect on PARS; assay not given
T1 construct: purchased Trevigen, Gaithersburg, Md
Method: The assay is performed in 96 well ELISA plates according to instructions provided with a commercially available PARS inhibition assay kit (for example, from Trevigen, Gaithersburg, Md.).
The assay was performed in 96 well ELISA plates according to instructions provided with a commercially available PARS inhibition assay kit (Trevigen, Gaithersburg, Md.). Briefly, wells were coated with 1 mg/ml histone (50 μl/well) at 4 C overnight. Plates were then washed four times with PBS and then blocked by adding 50 μl Strep-Diluent (supplied with the kit). After incubation (1 h, 25° C.), the plates were washed four times with PBS. […] The reaction was allowed to proceed for 30 min at room temperature. After 4 washes in PBS, incorporated biotin was detected by peroxidase-conjugated streptavidin (1:500 dilution) and TACS Sapphire substrate.

[2] = molecular target: T2, PARS (Mus musculus, UniProt P11103); assay: Cell protection assay: PARS activity in peroxynitrite-treated raw murine macrophages; format: cell-based; settings: peroxynitrite 750 μM, 3H-NAD incorporation, calculated from a dose-response curve
T2 construct: endogenous in cells; host or cells: RAW murine macrophages
T2 sequence (P11103 whole entry): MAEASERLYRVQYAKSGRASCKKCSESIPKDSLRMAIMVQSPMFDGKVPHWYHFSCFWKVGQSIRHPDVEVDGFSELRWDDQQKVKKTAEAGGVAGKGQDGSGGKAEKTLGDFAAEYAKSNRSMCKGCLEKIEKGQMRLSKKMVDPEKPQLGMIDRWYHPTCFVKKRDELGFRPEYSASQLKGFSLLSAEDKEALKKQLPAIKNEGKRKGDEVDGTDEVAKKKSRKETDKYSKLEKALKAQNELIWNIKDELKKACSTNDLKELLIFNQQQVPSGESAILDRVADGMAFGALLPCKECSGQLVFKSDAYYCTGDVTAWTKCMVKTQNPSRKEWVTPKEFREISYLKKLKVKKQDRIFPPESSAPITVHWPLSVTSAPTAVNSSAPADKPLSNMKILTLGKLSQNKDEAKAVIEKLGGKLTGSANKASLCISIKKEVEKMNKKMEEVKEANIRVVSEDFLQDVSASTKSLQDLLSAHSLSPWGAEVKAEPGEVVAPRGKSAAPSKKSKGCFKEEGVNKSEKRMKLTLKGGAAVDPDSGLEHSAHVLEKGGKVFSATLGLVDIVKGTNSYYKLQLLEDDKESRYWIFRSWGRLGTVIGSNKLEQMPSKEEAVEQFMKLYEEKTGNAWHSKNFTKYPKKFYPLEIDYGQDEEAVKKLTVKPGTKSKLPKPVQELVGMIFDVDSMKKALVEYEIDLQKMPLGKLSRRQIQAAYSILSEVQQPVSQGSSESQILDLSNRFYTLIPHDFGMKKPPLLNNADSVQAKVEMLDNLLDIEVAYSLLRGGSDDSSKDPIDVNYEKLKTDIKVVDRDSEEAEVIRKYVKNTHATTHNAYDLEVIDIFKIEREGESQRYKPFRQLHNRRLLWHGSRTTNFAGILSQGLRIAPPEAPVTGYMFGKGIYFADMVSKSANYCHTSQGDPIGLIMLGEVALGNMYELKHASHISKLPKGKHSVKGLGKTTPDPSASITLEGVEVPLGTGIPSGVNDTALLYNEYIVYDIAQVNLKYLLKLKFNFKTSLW
Method: The media was removed and replaced with 0.5 mL HEPES (pH 7.5) containing 0.01% digitonin and ^3H-NAD (0.5 μCi/mL, final concentration of NAD+ in buffer is […]) and the resultant mixture was allowed to stand for 20 minutes. […] The tubes were maintained at 4° C. for four hours, centrifuged at 1800 g for 10 minutes, and the supernatant removed. […] The contents of the tubes were then added to ScintiSafe Plus scintillation liquid (6.5 ml, Fisher Scientific) and radioactivity was measured using a liquid scintillation counter (Wallac, Gaithersburg, Md.).

T1 sequence (P09874 whole entry): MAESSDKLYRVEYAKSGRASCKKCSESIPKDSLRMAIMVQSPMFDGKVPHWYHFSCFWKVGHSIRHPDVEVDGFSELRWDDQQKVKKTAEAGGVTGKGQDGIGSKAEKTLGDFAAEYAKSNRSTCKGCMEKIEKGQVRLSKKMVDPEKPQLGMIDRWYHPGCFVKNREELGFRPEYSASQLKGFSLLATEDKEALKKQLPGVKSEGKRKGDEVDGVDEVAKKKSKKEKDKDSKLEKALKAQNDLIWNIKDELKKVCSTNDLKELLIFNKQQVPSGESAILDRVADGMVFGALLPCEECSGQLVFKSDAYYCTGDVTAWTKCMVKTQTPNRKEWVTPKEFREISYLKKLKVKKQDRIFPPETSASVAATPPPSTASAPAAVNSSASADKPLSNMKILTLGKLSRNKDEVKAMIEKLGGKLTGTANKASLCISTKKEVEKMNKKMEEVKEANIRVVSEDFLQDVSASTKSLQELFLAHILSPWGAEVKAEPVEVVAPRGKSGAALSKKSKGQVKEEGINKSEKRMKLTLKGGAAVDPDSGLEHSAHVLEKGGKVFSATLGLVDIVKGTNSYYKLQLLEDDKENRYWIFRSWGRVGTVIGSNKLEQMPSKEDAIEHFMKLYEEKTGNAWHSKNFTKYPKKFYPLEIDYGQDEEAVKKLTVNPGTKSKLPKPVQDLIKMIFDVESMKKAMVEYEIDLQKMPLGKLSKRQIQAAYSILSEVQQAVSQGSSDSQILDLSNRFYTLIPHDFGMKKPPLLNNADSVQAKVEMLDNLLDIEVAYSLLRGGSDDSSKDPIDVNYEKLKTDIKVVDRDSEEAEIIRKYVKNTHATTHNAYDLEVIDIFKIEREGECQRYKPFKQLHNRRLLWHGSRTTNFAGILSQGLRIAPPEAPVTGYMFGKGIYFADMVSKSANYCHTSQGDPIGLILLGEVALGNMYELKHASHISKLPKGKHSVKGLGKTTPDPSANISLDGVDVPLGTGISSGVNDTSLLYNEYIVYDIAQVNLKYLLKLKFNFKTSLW

Compound | IC50 [1] [nM] | EC50 [2] [nM]
CCCNC(=O)Nc1ccc2c(c1)Cc1c-2[nH]c(=O)c2ccccc12 [Compound 27] | 100 | –
CN(C)CC(=O)Nc1ccc2c(c1)-c1[nH]c(=O)c3ccccc3c1C2 [Compound 56a, N-[5,6-Dihydro-5-oxo-indeno[1,2-c]isoquinolin-8-yl]-N,N-dimethylacetamide] | 800 | –
O=C(CN1CC=C(c2ccccc2)CC1)Nc1ccc2c(c1)Cc1c-2[nH]c(=O)c2ccccc12 [Compound 12a, N-(5-Oxo-5,11-dihydro-6H-indeno[1,2-c]isoquinolin-9-yl)-2-(4-phenyl-3,6-dihydro-2H-pyridin-1-yl)-acetamide] | 80 | –
CN(C)CCC(=O)Nc1cccc2c1Cc1c-2[nH]c(=O)c2ccccc12 [Compound 3b] | – | 280
CN(C)CC(=O)Nc1cccc2c1Cc1c-2[nH]c(=O)c2ccccc12 [Compound 3a] | – | 200
